This note sets out measurements from patent US9156840B2, “D2 antagonists, methods of synthesis and methods of use” (ALTOS THERAPEUTICS, LLC, priority 2010, dated 2015).

Each structure is given as a SMILES string. Counter-ions that a name gives are not always drawn. A value given as a limit tells only on which side of the number the result lay.

The target in the assay is T1, human D2 receptor (Homo sapiens, UniProt P14416).
T1 construct: expressed in transfected cells; cDNA from Origene clones TC308892 and SC123573
T1 sequence (P14416 whole entry): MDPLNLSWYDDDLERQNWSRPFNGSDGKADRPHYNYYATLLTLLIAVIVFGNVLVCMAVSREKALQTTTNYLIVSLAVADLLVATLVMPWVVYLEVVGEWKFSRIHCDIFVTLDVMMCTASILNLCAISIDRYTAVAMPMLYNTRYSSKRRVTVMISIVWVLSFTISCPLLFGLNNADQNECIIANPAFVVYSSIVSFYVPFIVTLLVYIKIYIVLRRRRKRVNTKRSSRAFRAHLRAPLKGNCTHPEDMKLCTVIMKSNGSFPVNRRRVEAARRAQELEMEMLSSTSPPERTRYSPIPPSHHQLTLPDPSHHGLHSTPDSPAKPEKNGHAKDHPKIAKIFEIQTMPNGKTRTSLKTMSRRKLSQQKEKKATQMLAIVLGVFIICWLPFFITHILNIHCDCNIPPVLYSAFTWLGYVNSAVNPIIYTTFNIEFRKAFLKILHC
As to the kind of experiment: D2 receptor radioligand binding assay (membranes of HEK-293 cells expressing human D2 receptor). Conditions: radioligand displacement, HEK293 membranes, 37° C. for 120 minutes; read-out: Affinity Score (IC50 values for D2 on a scale of 1 through 5). How it is done:
Affinity for the dopamine D2 receptor was tested in vitro, and the following describes the construction of cell lines expressing human D2 receptor, as well as the binding assays themselves.
Establishment of Stable Cell Lines Expressing Either the Cloned Human D2S Receptor or the Cloned Human D2L Receptor.
The human D2 receptor exists in two isoforms: the short form (D2S) and the long form (D2L). The two isoforms are generated from the D2 gene by alternative splicing and the D2L isoform differs from the D2S isoform by the addition of 29 amino acids in the third intracellular loop of its protein structure.
To establish HEK-293 cell lines stably expressing either the human D2S or the human D2L, the human dopamine D2S receptor (Genebank Accession Number NM_016574) and human dopamine D2L receptor (Genebank Accession Number BC021195) were amplified by PCR from Origene cDNA clones TC308892 and SC123573 (respectively) using the following primers: 5-[…]-3 (SEQ ID NO: 1) sense and 5-[…]-3 (SEQ ID NO: 2) antisense. The resulting PCR products were respectively cloned into pENTR-D-TOPO (Invitrogen), sequenced and then transferred into the pCDNA3.2-DEST (Invitrogen) using the LR-clonasc gateway reaction (Invitrogen) and sequenced again to verify the genes sequence.
HEK293 cells were maintained in Eagles Minimum Essential Medium (MEM) supplemented with 0.292 g/L L-glutamine and 10% (v/v) fetal calf serum at 37° C. in a 5% CO2 humidified atmosphere. Cells were grown to 60-80% confluency in 10 cm dishes before transfection. Transfection of the D2S and D2L containing pcDNA3.2-DEST into HEK-293 cells were performed using Lipofectamine 2000 (Invitrogen). Transfected cells were seeded and diluted 2 days after transfection and maintained in culture medium supplemented with 500 μg/mL G418. The HEK-293 cell line expressing the huD2S (R2D2S) and the huD2L (R2D2L) were maintained in culture medium supplemented with 500 μg/mL G418.
D2 Receptor Binding Assays
HEK293 cells were in Eagles Minimum Essential Medium (MEM) supplemented with 10% FBS, 0.292 g/liter L-glutamine, 10^5 units/liter penicillin, 100 mg/liter streptomycin and […] Geneticin at 37° C. in a 5% CO2 humidified atmosphere. Cells were grown to 80-90% confluence and harvested with cell stripper (Cellgro #25-056-CI). Cells were then washed with PBS (2×). Cells were either pelleted and frozen at −80° C. or membranes were prepared immediately.
Cells from pellet were resuspended in homogenization buffer (15 mM Tris*HCl, 2 mM MgCl2*6H2O, 0.3 mM EDTA, 1 mM EGTA pH 7.4 @ 4° C.). Cells were then homogenized using a Polytron (PT 1200) homogenizer at setting 6 for 10 seconds. Crude membranes were pelleted at 39, 412 g for 15 min, at 4° C. (2×) in a Sorval RC6 plus centrifuge. Membranes were finally resuspended in resuspension buffer (50 mM Tris*HCl, 120 mM NaCl, 10 mM MgCl2*6H2O, 1 mM EDTA pH 7.4 @ 4° C.) and sonicated (Fisher Sonic Dismembrator) at setting 5 for 10 seconds.
The radioligand binding assays were conducted in microtiter plates (Costar #3961) with a final volume of 1.0 mL.
The membranes were thawed at room temperature, briefly homogenized using a sonicator, diluted in assay buffer and kept on wet ice until being added to the assay plate. Membranes were diluted to a final target tissue concentration of 10 μg protein per well. The specific binding should be greater than 80% with less than 10% total radioligand bound to minimize ligand depletion errors.
First compound of the invention (50 μL) or assay buffer (50 mM Tris*HCl, 120 mM NaCl, 5 mM MgCl2*6H2O, 1 mM EDTA, 5 mM KCl pH 7.4 @37° C. plus 0.025% BSA), buffer (700 μL) and then membrane (200 μL) were added to the deep well assay plate, which was then shaken for 10 minutes. Finally, radioligand (50 μL) was added.
The assay plates were incubated at 37° C. for 120 minutes.
The assay plate were filtered over 0.3% PEI pretreated glass fiber filtermats (GF/C) using a Packard Filtermate cell harvester. […]
(In general: Displacement assays read how much labelled ligand stays bound in the presence of the test substance.)
Take `O=C(O)c1cccc(CN2CN(c3ccccc3)C3(CCN(CCCn4c(=O)[nH]c5ccccc54)CC3)C2=O)c1` [Compound 11, 3-((4-Oxo-8-(3-(2-oxo-2,3-dihydro-1H-benzo[d]imidazol-1-yl)propyl)-1-phenyl-1,3,8-triazaspiro[4.5]decan-3-yl)methyl)benzoic acid]: the IC50 is under 10 nM.

As for `O=C(O)[C@H](c1ccccc1)N1CN(c2ccccc2)C2(CCN(CCCn3c(=O)[nH]c4ccccc43)CC2)C1=O` [Compound 40, (S)-2-(4-oxo-8-(3-(2-oxo-2,3-dihydro-1H-benzo[d]imidazol-1-yl)propyl)-1-phenyl-1,3,8-triazaspiro[4.5]decan-3-yl)-2-phenylacetic acid], the IC50 was under 10 nM.

As to `CS(=O)(=O)Nc1cccc(N2CN(c3ccccc3)C3(CCN(CCCC(=O)c4ccc(F)cc4)CC3)C2=O)c1` [Compound 211], the IC50 is under 10 nM.

Regarding `O=C(O)c1cccc(CN2CN(c3ccccc3)C3(CCN(CCCn4nnc5ccccc54)CC3)C2=O)c1` [Compound 85, 3-((8-(3-(1H-Benzo[d][1,2,3]triazol-1-yl)propyl)-4-oxo-1-phenyl-1,3,8-triazaspiro[4.5]decan-3-yl)methyl)benzoic acid], the IC50 was under 10 nM.

For `O=C(O)c1cccc(CN2CN(c3ccc(F)cc3)C3(CCN(CCCN4C(=O)Cc5ccccc54)CC3)C2=O)c1` [Compound 145, 3-((1-(4-Fluorophenyl)-4-oxo-8-(3-(2-oxoindolin-1-yl)propyl)-1,3,8-triazaspiro[4.5]decan-3-yl)methyl)benzoic acid], the IC50 is under 10 nM.

As for `O=C(O)c1cccc(CN2CN(c3ccccc3)C3(CCN(CCCC(O)c4ccccc4)CC3)C2=O)c1` (stereo not drawn) [Compound 173, 3-((8-(4-hydroxy-4-phenylbutyl)-4-oxo-1-phenyl-1,3,8-triazaspiro[4.5]decan-3-yl)methyl)benzoic acid], the IC50 was under 10 nM.

For the compound `CS(=O)(=O)Nc1ccc(N2CN(c3ccccc3)C3(CCN(CCCN4C(=O)Cc5ccccc54)CC3)C2=O)cc1` [Compound 215, N-(4-(4-oxo-8-(3-(2-oxoindolin-1-yl)propyl)-1-phenyl-1,3,8-triazaspiro[4.5]decan-3-yl)phenyl)methanesulfonamide], the IC50 was under 10 nM.

On to `O=C(O)[C@H](c1ccccc1)N1CN(c2ccccc2)C2(CCN(CCCN3C(=O)Cc4ccccc43)CC2)C1=O` [Compound 170, (S)-2-(4-oxo-8-(3-(2-Oxoindolin-1-yl)propyl)-1-phenyl-1,3,8-triazaspiro[4.5]decan-3-yl)-2-phenylacetic acid], for which the IC50 was under 10 nM.

Turning to `CC1(C)C(=O)N(CCCN2CCC3(CC2)C(=O)N(Cc2ccc(C(=O)O)cc2)CN3c2ccccc2)c2ccccc21` [Compound 171, 4-((8-(3-(3,3-dimethyl-2-oxoindolin-1-yl)propyl)-4-oxo-1-phenyl-1,3,8-triazaspiro[4.5]decan-3-yl)methyl)benzoic acid, hydrochloride], the IC50 is under 10 nM.

With `O=C(O)c1ccccc1CN1CN(c2ccccc2)C2(CCN(CCCN3C(=O)Cc4ccccc43)CC2)C1=O` [Compound 148, 2-((4-Oxo-8-(3-(2-oxoindolin-1-yl)propyl)-1-phenyl-1,3,8-triazaspiro[4.5]decan-3-yl)methyl)benzoic acid], the IC50 is under 10 nM.

Turning to `O=C(O)c1cccc(CN2CN(c3ccccc3)C3(CCN(CCCn4c(=O)n(C5CC5)c5ccccc54)CC3)C2=O)c1` [Compound 120, 3-((8-(3-(3-Cyclopropyl-2-oxo-2,3-dihydro-1H-benzo[d]imidazol-1-yl)propyl)-4-oxo-1-phenyl-1,3,8-triazaspiro[4.5]decan-3-yl)methyl)benzoic acid], the IC50 was under 10 nM.

For the compound `O=C(O)c1cccc(CN2CN(c3ccccc3)C3(CCN(CCCn4c(=O)[nH]c5ccc(Cl)cc54)CC3)C2=O)c1` [Compound 100, 3-((8-(3-(6-Chloro-2-oxo-2,3-dihydro-1H-benzo[d]imidazol-1-yl)propyl)-4-oxo-1-phenyl-1,3,8-triazaspiro[4.5]decan-3-yl)methyl)benzoic acid], the IC50 is under 10 nM.

Consider `O=C(O)c1cccc(CN2CN(c3ccccc3)C3(CCN(CCCN4C(=O)Cc5ccccc54)CC3)C2=O)c1` [Compound 89, 3-((4-oxo-8-(3-(2-oxoindolin-1-yl)propyl)-1-phenyl-1,3,8-triazaspiro[4.5]decan-3-yl)methyl)benzoic acid, hydrochloride], for which the IC50 was under 10 nM.

Consider `O=C(O)c1cccc(CN2CN(c3ccccc3)C3(CCN(CCCC(=O)c4cccs4)CC3)C2=O)c1` [Compound 143, 3-((4-oxo-8-(4-oxo-4-(thiophen-2-yl)butyl)-1-phenyl-1,3,8-triazaspiro[4.5]decan-3-yl)methyl)benzoic acid, hydrochloride], for which the IC50 was under 10 nM.

On to `CC1(F)C(=O)N(CCCN2CCC3(CC2)C(=O)N(Cc2ccccc2C(=O)O)CN3c2ccccc2)c2ccccc21` (stereo not drawn) [Compound 162, 2-((8-(3-(3-Fluoro-3-methyl-2-oxoindolin-1-yl)propyl)-4-oxo-1-phenyl-1,3,8-triazaspiro[4.5]decan-3-yl)methyl)benzoic acid], for which the 50% inhibitory concentration (IC50) is under 10 nM.

As for `O=C(O)c1cccc(CN2CN(c3ccc(F)cc3)C3(CCN(CCCn4c(=O)n(C5CC5)c5ccccc54)CC3)C2=O)c1` [Compound 156, 3-((8-(3-(3-cyclopropyl-2-oxo-2,3-dihydro-1H-benzo[d]imidazol-1-yl)propyl)-1-(4-fluorophenyl)-4-oxo-1,3,8-triazaspiro[4.5]decan-3-yl)methyl)benzoic acid], the IC50 is under 10 nM.

Regarding `O=C(O)[C@@H](c1ccccc1)N1CN(c2ccccc2)C2(CCN(CCCn3c(=O)[nH]c4ccccc43)CC2)C1=O` [Compound 39, (R)-2-(4-oxo-8-(3-(2-oxo-2,3-dihydro-1H-benzo[d]imidazol-1-yl)propyl)-1-phenyl-1,3,8-triazaspiro[4.5]decan-3-yl)-2-phenylacetic acid], the half-inhibitory concentration (IC50) is under 10 nM.

`O=C(O)c1cccc(CN2CN(c3ccc(F)cc3)C3(CCN(CCCn4c(=O)[nH]c5ccccc54)CC3)C2=O)c1` [Compound 43, 3-((1-(4-Fluorophenyl)-4-oxo-8-(3-(2-oxo-2,3-dihydro-1H-benzo[d]imidazol-1-yl)propyl)-1,3,8-triazaspiro[4.5]decan-3-yl)methyl)benzoic acid]: the IC50 is under 10 nM.

For `O=C(CCCN1CCC2(CC1)C(=O)N([C@@H](C(=O)O)c1ccccc1)CN2c1ccccc1)c1ccccc1` [Compound 167, (R)-2-(4-oxo-8-(4-oxo-4-phenylbutyl)-1-phenyl-1,3,8-triazaspiro[4.5]decan-3-yl)-2-phenylacetic acid], the IC50 was under 10 nM.

As to `O=C(O)CC(c1ccccc1)N1CN(c2ccccc2)C2(CCN(CCCn3c(=O)[nH]c4ccccc43)CC2)C1=O` (stereo not drawn) [Compound 70, 3-(4-Oxo-8-(3-(2-oxo-2,3-dihydro-1H-benzo[d]imidazol-1-yl)propyl)-1-phenyl-1,3,8-triazaspiro[4.5]decan-3-yl)-3-phenylpropanoic acid], the IC50 is under 10 nM.

Consider `O=C(O)c1ccccc1CN1CN(c2ccc(F)cc2)C2(CCN(CCCn3c(=O)n(C4CC4)c4ccccc43)CC2)C1=O` [Compound 159, 2-((8-(3-(3-cyclopropyl-2-oxo-2,3-dihydro-1H-benzo[d]imidazol-1-yl)propyl)-1-(4-fluorophenyl)-4-oxo-1,3,8-triazaspiro[4.5]decan-3-yl)methyl)benzoic acid], for which the IC50 is under 10 nM.

By IC50 is commonly meant the point on the concentration scale where inhibition reaches its midpoint.
